The numbers were not newly measured in PubChem BioAssay AID1259410 (Chemical Carcinogenesis Research Information System (CCRIS), 2018), which cites them from elsewhere.

SMILES strings stand for the structures.

The data set relates to rodent tumor promotion studies, tumor incidence. In words: CCRIS tumor promotion studies.

Regarding `OCc1c[nH]c2ccccc12`, the outcome reads like this: (Carcinogen: DIETHYLNITROSAMINE, 55-18-5, N-METHYL-N-NITROSOUREA, 684-93-5, DIHYDROXY-DI-N-PROPYLNITROSAMINE, 53069-64-6, Carcinogen: DIETHYLNITROSAMINE, 55-18-5, N-METHYL-N-NITROSOUREA, 684-93-5, DIHYDROXY-DI-N-PROPYLNITROSAMINE, 53069-64-6, Doses [Carcinogen]: 100 MG/KG BW DEN ONCE THEN 20 MG/KG BW MNU ONCE ON DAYS 5, 8, 11, AND 14 FOLLOWED BY 0.1% DHEN IN DRINKING WATER FOR 2 W, Doses [Promoter]: 0, 0.25% IN DIET FOR 20 WK BEGINNING POST CARCINOGEN TREATMENT (STUDY DURATION: 52 WK), Route [Carcinogen]: INTRAPERITONEAL, INTRAPERITONEAL, ORAL, Route [Carcinogen]: INTRAPERITONEAL, INTRAPERITONEAL, ORAL, Route [Promoter]: ORAL, Species: RAT, Strain/Sex: SPRAGUE-DAWLEY/MALE) “thyroid gland: follicular cell adenoma or carcinoma”; (Carcinogen: DIETHYLNITROSAMINE, 55-18-5, N-METHYL-N-NITROSOUREA, 684-93-5, DIHYDROXY-DI-N-PROPYLNITROSAMINE, 53609-64-6, Carcinogen: DIETHYLNITROSAMINE, 55-18-5, N-METHYL-N-NITROSOUREA, 684-93-5, DIHYDROXY-DI-N-PROPYLNITROSAMINE, 53609-64-6, Doses [Carcinogen]: 100 MG/KG BW DEN ONCE, 20 MG/KG BW MNU 2/WK FOR 2 WK, THEN 0.1% DHPN IN DRINKING WATER FOR 2 WK, Doses [Promoter]: O, 0.25% IN DIET FOR 20 WK BEGINNING POST CARCINOGEN TREATMENT (STUDY DURATION: 52 WK), Route [Carcinogen]: INTRAPERITONEAL, INTRAPERITONEAL, ORAL, Route [Carcinogen]: INTRAPERITONEAL, INTRAPERITONEAL, ORAL, Route [Promoter]: ORAL, Species: RAT, Strain/Sex: SPRAGUE-DAWLEY/MALE) “thyroid gland: adenoma and adenocarcinoma”; (Doses [Carcinogen]: 0.5 PPM FOR 30 MIN, Doses [Promoter]: 0, 1000 PPM IN DIET BEGINNING 14 WK POST CARCINOGEN DOSE (STUDY DURATION: 12 MO), Route [Carcinogen]: IMMERSION, Route [Promoter]: ORAL, Species: FISH, Strain/Sex: RAINBOW TROUT) “liver: tumor”; (Doses [Carcinogen]: 12.5 PPB IN WATER FOR 30 MIN, Doses [Promoter]: 0, 2000 PPM IN DIET BEGINNING 4 WK POST CARCINOGEN DOSE AND CONTINUING FOR DURATION OF STUDY (STUDY DURATION: 36 WK), Route [Carcinogen]: IMMERSION, Route [Promoter]: ORAL, Species: FISH, Strain/Sex: RAINBOW TROUT) “liver: tumor”; (Doses [Carcinogen]: 12.5 PPB IN WATER FOR 30 MIN, Doses [Promoter]: 0, 2000 PPM IN DIET BEGINNING 12 WK POST CARCINOGEN DOSE AND CONTINUING FOR 12 WK FOLLOWED BY CONTROL DIET FOR 12 WK (ST, Route [Carcinogen]: IMMERSION, Route [Promoter]: ORAL, Species: FISH, Strain/Sex: RAINBOW TROUT) “liver: tumor”; (Doses [Carcinogen]: 12.5 PPB IN WATER FOR 30 MIN, Doses [Promoter]: 0, 2000 PPM IN DIET BEGINNING 12 WK POST CARCINOGEN DOSE AND CONTINUING FOR DURATION OF STUDY (STUDY DURATION: 36 WK), Route [Carcinogen]: IMMERSION, Route [Promoter]: ORAL, Species: FISH, Strain/Sex: RAINBOW TROUT) “liver: tumor”. In addition, the outcome is “liver: tumor” (Doses [Carcinogen]: 12.5 PPB IN WATER FOR 30 MIN, Doses [Promoter]: 0, 2000 PPM IN DIET FOR 24 WK BEGINNING POST CARCINOGEN DOSE (STUDY DURATION: 36 WK), Route [Carcinogen]: IMMERSION, Route [Promoter]: ORAL, Species: FISH, Strain/Sex: RAINBOW TROUT); “liver: tumor” (Doses [Carcinogen]: 12.5 PPB IN WATER FOR 30 MIN, Doses [Promoter]: 0, 2000 PPM IN DIET FOR 36 WK BEGINNING POST CARCINOGEN DOSE (STUDY DURATION: 36 WK), Route [Carcinogen]: IMMERSION, Route [Promoter]: ORAL, Species: FISH, Strain/Sex: RAINBOW TROUT); “liver: tumor” (Doses [Carcinogen]: 50-250 PPM IN WATER FOR 30 MIN, Doses [Promoter]: 0, 500, 750, 1000, 1250 PPM IN DIET BEGINNING 3 MO POST CARCINOGEN TREATMENT (STUDY DURATION: 13 MO), Doses [Promoter]: 0, 500, 750, 1000, 1250 PPM IN DIET BEGINNING 3 MO POST CARCINOGEN TREATMENT (STUDY DURATION: 13 MO), Route [Carcinogen]: IMMERSION, Route [Promoter]: ORAL, Species: FISH, Strain/Sex: RAINBOW TROUT/MALE, FEMALE); “liver: tumor” (Doses [Carcinogen]: 50 PPB IN WATER FOR 30 MIN, Doses [Promoter]: 0, 2000 PPM IN DIET BEGINNING POST CARCINOGEN DOSE AND ADMINISTERED 2 D/WK FOR DURATION OF STUDY (STUDY DURATION: 36 WK), Route [Carcinogen]: IMMERSION, Route [Promoter]: ORAL, Species: FISH, Strain/Sex: RAINBOW TROUT); “liver: tumor” (Doses [Carcinogen]: 50 PPB IN WATER FOR 30 MIN, Doses [Promoter]: 0, 2000 PPM IN DIET BEGINNING POST CARCINOGEN DOSE AND ADMINISTERED FOR 1 WK ALTERNATING WEEKLY WITH CONTROL DIET (STUDY, Route [Carcinogen]: IMMERSION, Route [Promoter]: ORAL, Species: FISH, Strain/Sex: RAINBOW TROUT).
With `C[C@H](N)C(=O)NCC(=O)N[C@H]1CSSC[C@@H](C(=O)O)NC(=O)[C@H](CO)NC(=O)[C@H]([C@@H](C)O)NC(=O)[C@H](Cc2ccccc2)NC(=O)[C@H]([C@@H](C)O)NC(=O)[C@H](CCCCN)NC(=O)[C@H](Cc2c[nH]c3ccccc23)NC(=O)[C@H](Cc2ccccc2)NC(=O)[C@H](Cc2ccccc2)NC(=O)[C@H](CC(N)=O)NC(=O)[C@H](CCCCN)NC1=O`, the outcome (Carcinogen: N-METHYL-N'-NITRO-N-NITROSOGUANIDINE, 70-25-7, Doses [Carcinogen]: 25 UG/ML DRINKING WATER FOR 25 WK, Doses [Promoter]: 0, 100, 200 UG/KG IN OLIVE OIL 1/2 D BEGINNING POST CARCINOGEN DOSE FOR DURATION OF STUDY (STUDY DURATION: 52 WK), Doses [Promoter]: 0, 100, 200 UG/KG IN OLIVE OIL 1/2 D BEGINNING POST CARCINOGEN DOSE FOR DURATION OF STUDY (STUDY DURATION: 52 WK), Route [Carcinogen]: ORAL, Route [Promoter]: SUBCUTANEOUS, Species: RAT, Strain/Sex: WISTAR/MALE) is reported as “glandular stomach: adenocarcinoma”.
In the case of `CC[C@H](C)[C@H](NC(=O)[C@H](Cc1cnc[nH]1)NC(=O)[C@H](CCSC)NC(=O)[C@H](CS)NC(=O)[C@@H](NC(=O)CNC(=O)CNC(=O)[C@H](CC(N)=O)NC(=O)[C@H](CC(C)C)NC(=O)[C@H](CS)NC(=O)[C@H](Cc1ccc(O)cc1)NC(=O)CNC(=O)[C@H](CC(=O)O)NC(=O)[C@H](Cc1ccc(O)cc1)NC(=O)[C@H](CO)NC(=O)[C@H](CO)NC(=O)[C@@H]1CCCN1C(=O)[C@H](CS)NC(=O)CNC(=O)[C@@H]1CCCN1C(=O)[C@H](Cc1ccc(O)cc1)NC(=O)[C@H](CO)NC(=O)[C@@H](N)CC(N)=O)C(C)C)C(=O)N[C@@H](CCC(=O)O)C(=O)N[C@@H](CO)C(=O)N[C@@H](CC(C)C)C(=O)N[C@@H](CC(=O)O)C(=O)N[C@@H](CO)C(=O)N[C@@H](Cc1ccc(O)cc1)C(=O)N[C@H](C(=O)N[C@@H](CS)C(=O)N[C@@H](CC(N)=O)C(=O)N[C@@H](CS)C(=O)N[C@H](C(=O)N[C@H](C(=O)NCC(=O)N[C@@H](Cc1ccc(O)cc1)C(=O)N[C@@H](CO)C(=O)NCC(=O)N[C@@H](CC(=O)O)C(=O)N[C@@H](CCCNC(=N)N)C(=O)N[C@@H](CS)C(=O)N[C@@H](CCC(N)=O)C(=O)N[C@H](C(=O)N[C@@H](CCCNC(=N)N)C(=O)N[C@@H](CC(=O)O)C(=O)N[C@@H](CC(C)C)C(=O)N[C@@H](CCCNC(=N)N)C(=O)N[C@@H](Cc1c[nH]c2ccccc12)C(=O)N[C@@H](Cc1c[nH]c2ccccc12)C(=O)N[C@@H](CCC(=O)O)C(=O)N[C@@H](CC(C)C)C(=O)N[C@@H](CCCNC(=N)N)C(=O)O)[C@@H](C)O)[C@@H](C)CC)C(C)C)[C@@H](C)O`, the outcome (Carcinogen: 7,12-DIMETHYLBENZ[A]ANTHRACENE, 57-97-6, Doses [Carcinogen]: 0.5% IN ACETONE/HEAVY MINERAL OIL APPLIED TO BOTH CHEEK POUCHES 3/WK FOR 6 WK, Doses [Promoter]: 0, 10 UG/KG BW 3/WK FOR 6 WK BEGINNING 1 WK POST A SIALOADENECTOMY OR SHAM OPERATION AND 2 WK POST CARCINOGEN TREATMENT, Route [Carcinogen]: MUCOUS MEMBRANE, Route [Promoter]: MUCOUS MEMBRANE, Species: HAMSTER, Strain/Sex: SYRIAN/MALE) is reported as “cheek pouch: tumor; forestomach: tumor”.
In the case of `C[C@]12CC[C@@H]3c4ccc(O)cc4CC[C@H]3[C@@H]1CCC2=O`, under “Carcinogen: N-METHYL-N-NITROSOUREA, 684-93-5, Doses [Carcinogen]: 1 MG/100 G BW INJECTED INTO LEFT UTERINE TUBE ONCE, Doses [Promoter]: 0, 25 PPM IN DIET BEGINNING 1 WK POST CARCINOGEN TREATMENT (STUDY DURATION: 30 WK), Route [Carcinogen]: INJECTION, Route [Promoter]: ORAL, Species: MOUSE, Strain/Sex: ICR/FEMALE”, the outcome is “uterus (left): adenocarcinoma”.
For the compound `O=C1C2(Cl)C3(Cl)C4(Cl)C(Cl)(Cl)C5(Cl)C3(Cl)C1(Cl)C5(Cl)C24Cl` (stereo unspecified), the outcome (Carcinogen: DIETHYLNITROSAMINE, 55-18-5, Doses [Carcinogen]: 20 MG/KG IN WATER ONCE, Doses [Promoter]: 0, 9 MG/KG 2/WK FOR 27 WK BEGINNING 10 D POST CARCINOGEN DOSE (STUDY DURATION: 30 WK), Route [Carcinogen]: GAVAGE, Route [Promoter]: SUBCUTANEOUS, Species: RAT, Strain/Sex: SPRAGUE-DAWLEY/FEMALE) is given as “liver: hepatocellular carcinoma”.
For `ClC(Cl)=C(Cl)C(Cl)=C(Cl)Cl`, the outcome (Carcinogen: N-ETHYL-N-HYDROXYETHYLNITROSAMINE, 13147-25-6, Doses [Carcinogen]: 0.1% IN DRINKING WATER FOR 2 WK, Doses [Promoter]: 0, 0.1% IN DIET FOR 30 WK BEGINNING POST CARCINOGEN TREATMENT (STUDY DURATION: 32 WK), Route [Carcinogen]: ORAL, Route [Promoter]: ORAL, Species: RAT, Strain/Sex: WISTAR/MALE) is given as “kidney: renal cell tumor”.
